Measurements reported in ChEMBL document CHEMBL2177008, “Discovery of benzodiazepine sulfonamide-based bombesin receptor subtype 3 agonists and their unusual chirality” (ACS Med Chem Lett, 2011).
Calls of active or inactive are those of the source. The calls are words filed in the database; no cut-off is given here.

Columns and labels:
[1] = biological target: T1, Bombesin receptor subtype-3 (Mus musculus, UniProt O54798); assay: Agonist activity at mouse BRS3 expressed in HEK293 cells expressing aequorin measured for 30 secs by bioluminescence assay; assay type: functional, cell-based
T1 sequence (O54798 whole entry): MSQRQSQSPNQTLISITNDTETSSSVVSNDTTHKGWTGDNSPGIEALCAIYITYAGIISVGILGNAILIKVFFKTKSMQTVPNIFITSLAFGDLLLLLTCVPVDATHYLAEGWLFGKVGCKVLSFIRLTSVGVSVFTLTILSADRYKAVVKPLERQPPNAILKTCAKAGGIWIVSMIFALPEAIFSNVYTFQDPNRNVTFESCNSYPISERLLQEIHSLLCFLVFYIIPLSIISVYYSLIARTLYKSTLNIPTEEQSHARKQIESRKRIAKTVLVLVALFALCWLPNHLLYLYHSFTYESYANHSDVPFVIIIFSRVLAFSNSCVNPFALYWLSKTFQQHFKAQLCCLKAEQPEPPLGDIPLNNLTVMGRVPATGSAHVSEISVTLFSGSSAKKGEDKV

[2] = biological target: T2, Bombesin receptor subtype-3 (Homo sapiens, UniProt P32247); assay: Displacement of [125I]-[D-Tyr6,beta-Ala11,Phe13,Nle14]-Bombesin(6-14) from human BRS3 expressed in CHO cells expressing NFAT after 2 hrs by liquid scintillation counting; assay type: cell-based
T2 sequence (P32247 whole entry): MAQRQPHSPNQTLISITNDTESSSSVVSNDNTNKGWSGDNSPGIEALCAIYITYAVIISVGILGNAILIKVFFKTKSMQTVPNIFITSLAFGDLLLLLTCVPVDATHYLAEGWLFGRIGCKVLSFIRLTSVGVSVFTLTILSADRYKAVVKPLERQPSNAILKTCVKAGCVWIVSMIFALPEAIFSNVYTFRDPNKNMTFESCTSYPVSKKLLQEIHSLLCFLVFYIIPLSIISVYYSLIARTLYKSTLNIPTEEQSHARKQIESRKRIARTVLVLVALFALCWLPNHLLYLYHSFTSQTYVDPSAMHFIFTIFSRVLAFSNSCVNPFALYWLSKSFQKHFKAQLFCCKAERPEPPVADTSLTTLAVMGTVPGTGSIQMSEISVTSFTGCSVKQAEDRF

[3] = biological target: T2, Bombesin receptor subtype-3; assay: Agonist activity at human BRS3 expressed in HEK293 cells expressing aequorin measured for 30 secs by bioluminescence assay; assay type: functional, cell-based
[4] = biological target: T3, Bombesin receptor subtype-3 (Mus musculus) (UniProt O54798); assay: Agonist activity at mouse BRS3 expressed in HEK293 cells expressing aequorin measured for 30 secs by bioluminescence assay relative to [125I]-[D-Tyr6,beta-Ala11,Phe13,Nle14]-Bombesin(6-14); assay type: functional, cell-based
T3 sequence (whole entry): T1 sequence (O54798 whole entry)

[5] = Half life in Sprague-Dawley rat at 1 mg/kg, iv; assay type: ADME, organism-based; parameters: dose 1 mg/kg, route intravenous; details: in vivo
Rattus norvegicus = assay: Dose normalized AUC in Sprague-Dawley rat at 4 mg/kg, po; assay type: ADME, organism-based; parameters: dose 4 mg/kg, route oral; details: in vivo
[6] = Oral bioavailability in Sprague-Dawley rat at 4 mg/kg; assay type: ADME, organism-based; details: in vivo
[7] = Plasma clearance in Sprague-Dawley rat at 1 mg/kg, iv; assay type: ADME, organism-based; parameters: dose 1 mg/kg, route intravenous
Mus musculus [8] = assay: Antiobesity activity in po dosed diet-induced obese wild type C57 mouse assessed as body weight loss administered 60 mins prior to dark cycle onset measured after 18 hrs; assay type: functional, organism-based
PXR = biological target: T4, PXR (Homo sapiens, UniProt O75469); assay: Activation of human PXR at 10 uM relative to control; details: read-out: Activity
T4 sequence (O75469 whole entry): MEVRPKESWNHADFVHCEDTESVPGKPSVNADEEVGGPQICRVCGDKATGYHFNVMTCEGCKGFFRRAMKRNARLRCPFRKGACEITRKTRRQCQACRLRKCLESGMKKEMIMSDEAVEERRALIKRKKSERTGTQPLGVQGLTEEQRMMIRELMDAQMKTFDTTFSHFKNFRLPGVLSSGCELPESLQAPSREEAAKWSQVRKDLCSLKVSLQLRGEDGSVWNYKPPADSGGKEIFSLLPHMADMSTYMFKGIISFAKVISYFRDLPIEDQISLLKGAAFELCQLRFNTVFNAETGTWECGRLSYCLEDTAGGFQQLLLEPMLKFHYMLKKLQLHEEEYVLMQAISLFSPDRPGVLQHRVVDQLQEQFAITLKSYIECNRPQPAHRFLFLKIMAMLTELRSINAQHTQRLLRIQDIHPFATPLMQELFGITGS

[9] = Oral bioavailability in rhesus monkey; assay type: ADME, organism-based, Macaca mulatta; details: in vivo
[10] = biological target: T2, Bombesin receptor subtype-3; assay: Agonist activity at human BRS3 expressed in HEK293 cells expressing aequorin measured for 10 mins by bioluminescence assay
Canis lupus familiaris = species: Canis lupus familiaris; assay: Agonist activity at dog BRS3 relative to [125I]-[D-Tyr6,beta-Ala11,Phe13,Nle14]-Bombesin(6-14); assay type: functional
[11] = Agonist activity at dog BRS3; assay type: functional, Canis lupus familiaris
[12] = Agonist activity at rhesus monkey BRS3; assay type: functional, Macaca mulatta
[13] = biological target: T5, Nuclear receptor subfamily 1 group I member 2 (Homo sapiens, UniProt O75469); assay: Activation of human PXR
T5 sequence (O75469 whole entry): T4 sequence (O75469 whole entry)

[14] = Displacement of [125I]-[D-Tyr6,beta-Ala11,Phe13,Nle14]-Bombesin(6-14) from dog BRS3; parameters: species or system Canis lupus familiaris
[15] = Half life in rhesus monkey; assay type: ADME, organism-based, Macaca mulatta; details: in vivo
Mus musculus [16] = assay: Antiobesity activity in po dosed diet-induced obese wild type C57 mouse assessed as reduction in food intake administered 60 mins prior to dark cycle onset measured after 18 hrs; assay type: functional, organism-based
[17] = Displacement of [125I]-[D-Tyr6,beta-Ala11,Phe13,Nle14]-Bombesin(6-14) from rhesus monkey BRS3; parameters: species or system Macaca mulatta
[18] = Inhibition of calcium channel Diltiazem hydrochloride binding site
Macaca mulatta = species: Macaca mulatta; assay: Agonist activity at rhesus monkey BRS3 relative to [125I]-[D-Tyr6,beta-Ala11,Phe13,Nle14]-Bombesin(6-14); assay type: functional
Mus musculus [19] = assay: Antiobesity activity in diet-induced obese […] knock-out C57 mouse assessed as reduction in food intake at 3 and 30 mg/kg, po administered 60 mins prior to dark cycle onset measured after 18 hrs; assay type: functional, organism-based; parameters: dose 30 mg/kg
[20] = biological target: Voltage-gated inwardly rectifying potassium channel KCNH2 (Homo sapiens, UniProt Q12809); assay: Inhibition of human ERG
Mus musculus [21] = assay: Antiobesity activity in diet-induced obese wild type C57 mouse assessed as weight loss at 3 mg/kg, po administered QD 60 mins prior to dark cycle onset relative to control; assay type: functional

Chain of Voltage-gated inwardly rectifying potassium channel KCNH2 (Q12809 whole entry): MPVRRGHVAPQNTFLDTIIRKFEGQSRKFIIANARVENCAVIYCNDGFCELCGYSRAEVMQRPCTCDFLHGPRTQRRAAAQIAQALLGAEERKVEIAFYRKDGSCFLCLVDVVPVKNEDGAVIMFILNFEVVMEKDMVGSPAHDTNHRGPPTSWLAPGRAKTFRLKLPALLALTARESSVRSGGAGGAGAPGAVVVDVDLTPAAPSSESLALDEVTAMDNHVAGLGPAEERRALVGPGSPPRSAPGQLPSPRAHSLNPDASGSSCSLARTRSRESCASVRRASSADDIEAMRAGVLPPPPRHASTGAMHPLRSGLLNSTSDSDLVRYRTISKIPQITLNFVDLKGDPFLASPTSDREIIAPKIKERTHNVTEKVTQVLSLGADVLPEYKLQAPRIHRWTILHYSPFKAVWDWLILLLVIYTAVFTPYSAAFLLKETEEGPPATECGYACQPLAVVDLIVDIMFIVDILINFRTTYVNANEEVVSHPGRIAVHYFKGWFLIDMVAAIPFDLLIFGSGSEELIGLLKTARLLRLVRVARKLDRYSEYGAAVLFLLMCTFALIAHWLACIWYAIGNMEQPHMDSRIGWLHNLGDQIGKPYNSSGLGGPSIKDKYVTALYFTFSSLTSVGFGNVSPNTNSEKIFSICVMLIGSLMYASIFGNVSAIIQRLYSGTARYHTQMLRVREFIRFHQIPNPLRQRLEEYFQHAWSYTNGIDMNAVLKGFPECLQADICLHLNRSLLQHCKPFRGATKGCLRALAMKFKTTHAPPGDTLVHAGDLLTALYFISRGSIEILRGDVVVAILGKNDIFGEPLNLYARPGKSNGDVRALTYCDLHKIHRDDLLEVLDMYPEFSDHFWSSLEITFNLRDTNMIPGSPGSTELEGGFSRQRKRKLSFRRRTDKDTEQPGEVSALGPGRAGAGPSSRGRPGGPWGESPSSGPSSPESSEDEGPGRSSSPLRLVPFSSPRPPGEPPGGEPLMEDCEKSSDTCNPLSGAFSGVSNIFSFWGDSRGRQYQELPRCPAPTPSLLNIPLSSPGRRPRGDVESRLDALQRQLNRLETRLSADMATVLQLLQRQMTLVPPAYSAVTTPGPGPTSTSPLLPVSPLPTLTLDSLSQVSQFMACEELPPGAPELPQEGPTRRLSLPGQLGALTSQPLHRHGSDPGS

| Structure (SMILES) | EC50 [1] [nM] | IC50 [2] [nM] | EC50 [3] [nM] | max activation [4] [%] | further results |
| --- | --- | --- | --- | --- | --- |
| Cc1ccc2c(c1)N(S(=O)(=O)c1ccc(C(C)(C)C)cc1)Cc1ccc(C(F)(F)F)nc1N2 | 377 | 5.8 | 199 | 82 | half-life [5]: 2.2 h; AUC/dose (Rattus norvegicus): 0.31 µM·kg·h/mg; bioavailability [6]: 22%; clearance [7]: 24 mL/min/kg |
| CC(C)(C)c1ccc(S(=O)(=O)N2Cc3ccc(C(F)(F)F)nc3Nc3cccc(Cl)c32)cc1 | 155 | 3.2 | 63 | 100 | half-life [5]: 1.4 h; AUC/dose (Rattus norvegicus): 0.26 µM·kg·h/mg; bioavailability [6]: 34%; clearance [7]: 46 mL/min/kg |
| Cc1ccc2c(n1)N(S(=O)(=O)c1ccc(C(C)(C)C)cc1)Cc1ccc(C(F)(F)F)nc1N2 | 171 | – | 110 | 112 | – |
| Cc1ccc2c(c1C)N(S(=O)(=O)c1ccc(C(C)(C)C)cc1)Cc1cc(F)c(Cl)nc1N2 | 371 | 8.9 | 277 | 82 | – |
| Cc1ccc2c(c1C)N(S(=O)(=O)c1ccc(C(C)(C)C)cc1)Cc1ccc(Cl)nc1N2 | 98 | 1.2 | 38 | 105 | – |
| CC(C)(C)c1ccc(S(=O)(=O)N2Cc3ccc(C(F)(F)F)nc3Nc3ccc4ncccc4c32)cc1 | 129 | 0.7 | 108 | 107 | – |
| Cc1ccc2c(c1C)Nc1nc(C(F)(F)F)ccc1CN2S(=O)(=O)c1ccc(C(C)(C)C)cc1 | > 10000 | – | > 10000 | – | – |
| CC(C)(C)c1ccc(S(=O)(=O)N2Cc3ccc(C(F)(F)F)nc3Nc3cccc(O)c32)cc1 | 209 | 2.2 | 88 | 115 | – |
| Cc1c(C(=O)NN2CCCCC2)nn(-c2ccc(Cl)cc2Cl)c1-c1ccc(I)cc1 | – | – | – | – | Activity (Mus musculus [21]): 6.2% |
| Cc1cccc2c1N(S(=O)(=O)c1ccc(C(C)(C)C)cc1)Cc1ccc(C(F)(F)F)nc1N2 | 120 | 0.9 | 50 | 106 | half-life [5]: 1.6 h; AUC/dose (Rattus norvegicus): 0.13 µM·kg·h/mg; bioavailability [6]: 14%; clearance [7]: 38 mL/min/kg |
| CC(C)(C)c1ccc(S(=O)(=O)N2Cc3ccc(C(F)(F)F)nc3Nc3ccccc32)cc1 | 161 | 5.5 | 110 | 98 | – |
| Cc1ccc2c(c1C)N(S(=O)(=O)c1ccc(C(C)(C)C)cc1)Cc1ccc(C#N)nc1N2 | 50 | 4.4 | 50 | 103 | – |
| CC(C)(C)c1ccc(S(=O)(=O)N2Cc3ccc(C(F)(F)F)nc3Nc3ccc(C(C)(C)O)c(F)c32)cc1 | 134 | 5 | 77 | 97 | half-life [5]: 3 h; AUC/dose (Rattus norvegicus): 0.19 µM·kg·h/mg; bioavailability [6]: 13%; clearance [7]: 24 mL/min/kg |
| Cc1ccc2c(c1C)N(S(=O)(=O)c1ccc(C(C)(C)C)cc1)Cc1cccnc1N2 | 248 | 40 | 325 | 101 | half-life [5]: 1.6 h; AUC/dose (Rattus norvegicus): 0.007 µM·kg·h/mg; bioavailability [6]: 1%; clearance [7]: 164 mL/min/kg |
| Cc1ccc2c(n1)Nc1ccc(C)c(C)c1N(S(=O)(=O)c1ccc(C(C)(C)C)cc1)C2 | 232 | 10 | 131 | 107 | – |
| Cc1ccc2c(c1C)N(S(=O)(=O)c1ccc(C(C)(C)C)cc1)Cc1cc(Cl)cnc1N2 | > 10000 | 430 | > 10000 | – | – |

More lines, main results first:

| EC50 [1] [nM] | IC50 [2] [nM] | EC50 [3] [nM] | max activation [4] [%] | Structure (SMILES) | further results |
| --- | --- | --- | --- | --- | --- |
| 80 | 3.3 | 43 | 103 | Cc1ccc2c(c1C)N(S(=O)(=O)c1ccc(OC(F)(F)F)cc1)Cc1ccc(C(F)(F)F)nc1N2 | – |
| 79 | 5.7 | 60 | 83 | Cc1ccc2c(c1C)N(S(=O)(=O)c1ccc(C(C)(C)C#N)cc1)Cc1ccc(C(F)(F)F)nc1N2 | – |
| – | – | – | 98 | Cc1ccc2c(c1C)N(S(=O)(=O)c1ccc(C(C)(C)C)cc1)Cc1ccc(C(F)(F)F)nc1N2 | Activity (Mus musculus [8]): Dose-dependent effect; activity at 10 µM (PXR): 42%; half-life [5]: 1.6 h; bioavailability [9]: 17%; AUC/dose (Rattus norvegicus): 0.2 µM·kg·h/mg; bioavailability [6]: 15%; EC50 [10]: 15 nM; max activation (Canis lupus familiaris): 97%; EC50 [11]: 36 nM; EC50 [12]: 70 nM; EC50 [13]: 678 nM; IC50 [14]: 1.6 nM; half-life [15]: 1.8 h; Activity (Mus musculus [16]): Dose-dependent effect; IC50 [17]: 3 nM; clearance [7]: 29 mL/min/kg; IC50 [18]: > 10000 nM; max activation (Macaca mulatta): 97%; Activity (Mus musculus [19]): inactive; IC50 [20]: > 10000 nM |
| 84 | 1.6 | 49 | 110 | Cc1ccc2c(c1C)N(S(=O)(=O)c1ccc(C(C)C)cc1)Cc1ccc(C(F)(F)F)nc1N2 | half-life [5]: 3.5 h; AUC/dose (Rattus norvegicus): 0.24 µM·kg·h/mg; bioavailability [6]: 10%; clearance [7]: 16 mL/min/kg |
| 561 | 73 | 543 | 46 | Cc1ccc2c(c1C)N(S(=O)(=O)c1ccc(S(C)(=O)=O)cc1)Cc1ccc(C(F)(F)F)nc1N2 | – |
| 200 | 5.7 | 69 | 108 | Cc1ccc2c(c1C)N(S(=O)(=O)c1ccc(C(C)(C)F)cc1)Cc1ccc(C(F)(F)F)nc1N2 | – |
| 79 | 6.8 | 154 | 100 | Cc1ccc2c(c1C)N(S(=O)(=O)c1ccc(C(F)(F)F)cc1)Cc1ccc(C(F)(F)F)nc1N2 | – |
| 154 | 10 | 158 | 90 | Cc1ccc2c(c1C)N(S(=O)(=O)c1ccc(C(F)(F)F)s1)Cc1ccc(C(F)(F)F)nc1N2 | – |
| 96 | 14 | 123 | 103 | Cc1ccc2c(c1C)N(S(=O)(=O)c1csc(C(F)(F)F)c1)Cc1ccc(C(F)(F)F)nc1N2 | – |
